Assay results as given in patent US20080280859A1, “GEMINI VITAMIN D3 COMPOUNDS AND METHODS OF USE THEREOF” (BioXell S.p.A., priority 2005, published 2008).
Marks after values point to notes of the source that are not given here.

Key:
[1] = system: renin mRNA in As4.1hVDR cells; test: Renin suppression assay (renin mRNA, Northern blot); conditions: 10^−10, 10^−9 and 10^−8 M, 24 hours
HL-60 cells = test: HL-60 (CD14) cell differentiation; assay type: cell-based; conditions: Homo sapiens, HL-60 cell differentiation, read-out: HL-60(CD14) ED50
IFN-γ production = IFN-γ production in the mixed leukocyte response (MLR); assay type: cell-based; conditions: MLR of allogeneic PBMC, 5 days, ELISA; for IC50: 120 h, read-out: INF-γ IC50
Experimental: Immature dendritic cells (DC) were prepared as described in Romani, N. et al., J. Immunol. Meth.

in vivo = conditions: female, C57BL/6, mouse, po
VDR = target: T1, VDR (Homo sapiens, UniProt P11473); test: VDR binding; conditions: 1,25(OH)2D3 100.0
T1 sequence (P11473 1-427): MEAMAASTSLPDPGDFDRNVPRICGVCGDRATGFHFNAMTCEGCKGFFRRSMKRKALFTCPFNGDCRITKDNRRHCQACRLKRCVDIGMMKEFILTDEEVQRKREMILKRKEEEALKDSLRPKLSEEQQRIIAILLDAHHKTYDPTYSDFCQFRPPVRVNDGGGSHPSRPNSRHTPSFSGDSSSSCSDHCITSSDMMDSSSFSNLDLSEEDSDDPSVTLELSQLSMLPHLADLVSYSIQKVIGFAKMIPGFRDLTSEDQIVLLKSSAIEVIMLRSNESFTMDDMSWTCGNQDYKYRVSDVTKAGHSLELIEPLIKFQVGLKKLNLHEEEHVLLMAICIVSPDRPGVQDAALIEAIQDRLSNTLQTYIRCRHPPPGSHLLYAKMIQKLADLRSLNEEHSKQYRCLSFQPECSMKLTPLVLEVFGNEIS

ECV = test: Proliferation assay, bladder cancer cell line ECV; assay type: cell-based; conditions: Homo sapiens; 72 h culture, CyQuant proliferation assay
RT112 = test: Proliferation assay, bladder cancer cell line RT112; assay type: cell-based; conditions: Homo sapiens, RT-112; 72 h culture, CyQuant proliferation assay
Experimental: (§1) Bladder cancer cell lines (T24, RT112, HT1376 and RT4 are human bladder cancer cell lines; NHEK are normal human keratinocytes) were obtained from the European Collection of Cell Cultures (Salisbury, UK). […] After a further 72 h of culture, cell proliferation was measured using a fluorescence-based proliferation assay kit. (CyQuant Cell Proliferation Assay Kit, Molecular Probes, Eugene, Oreg., USA). The IC50 was calculated from the regression curve of the titration data.

HT 1376 = test: Proliferation assay, bladder cancer cell line HT 1376; assay type: cell-based; conditions: Homo sapiens, 72 h culture, CyQuant proliferation assay
Experimental: as §1

RT4 = test: Proliferation assay, bladder cancer cell line RT4; assay type: cell-based; conditions: Homo sapiens, RT-4; 72 h culture, CyQuant proliferation assay
Experimental: as §1

NHEK = test: Proliferation assay, normal human keratinocytes NHEK; assay type: cell-based; conditions: 72 h culture, CyQuant proliferation assay
Experimental: as §1

[2] = system: ILT3 expression on monocyte-derived immature dendritic cells; test: ILT3 upregulation on monocyte-derived immature dendritic cells (flow cytometry); assay type: cell-based, human; conditions: 24 hours; for upregulation of ILT3 expression: graded doses, up to 1000 nM
Experimental: Immature dendritic cells (DC) were prepared as described in Romani, N. et al., (1996) J. Immunol. Meth. 196:137). Briefly, peripheral blood mononuclear cells (PBMCs) were obtained from a buffy coat by ficoll-hypaque gradient (Pharmacia Biotec AB, Upsala, Sweden) and monocytes isolated from PBMCs by negative selected with a monocyte isolation kit (Milteny, Biotech, Bergish Gladblach, Germany). After isolation, monocytes were cultured for 6 to 7 days at a cell density of 1-2×106 in RPMI medium supplemented with 5% FetalClone I (Hyclone Laboratories, Logan, Utah) 2 mM L-glutamine, […], 1 mM sodium pyruvate and 1% nonessential amino acids, containing 800 U/ml GM-CSF (Mielogen 300, Schering-Plough) and 10 ng/ml interleukin (IL)-4 (PharMingen, San Diego, Calif.). Every other day, approximately 20% of the medium was removed and replaced by the same volume of fresh medium containing GM-CSF and IL-4.
Immunoglobulin-like transcript-3 upregulation was evaluated by flow cytometric analysis. Briefly, cells were preincubated with […] human IgG (Sigma Chemical, St. Louis, Mo.) and subsequently stained with anti-human ILT3 antibody (see, e.g., Cella, M. et al. (1997) J. Exp. Med. 185:1743) followed by anti-mouse IgG-phycoerithryn (Jackson). Cells were then analyzed with a FACScanR flow cytometer using a Cell QuestR software program (both from Beckton Dickinson, Mountain View, Calif.).

Compound | renin suppression activity compared with 1,25(OH)2D3 [1] | IC50 (IFN-γ production) [nM] | MTD (in vivo) [mg/kg] | IC50 (RT112) [µM] | IC50 (RT4) [µM] | also measured
CC(C)(O)CCC[C@@H](CC#CC(O)(C(F)(F)F)C(F)(F)F)[C@H]1CCC2/C(=C/C=C3/CC(O)C[C@H](O)C3)CCC[C@@]21C (stereo partly drawn) [Compound 6, 1,25-Dihydroxy-21-(3-hydroxy-3-trifluoromethyl-4-trifluoro-butynyl)-20S-19-nor-cholecalciferol] | more potent in suppressing renin expression than 1,25(OH)2D3 | – | – | – | – | –
C=C1/C(=C\C=C2/CCC[C@@]3(C)C2CC[C@@H]3[C@H](CC#CC(O)(C(F)(F)F)C(F)(F)F)CCCC(C)(C)O)CC(O)C[C@@H]1O (stereo partly drawn) [Compound 4, 1,25-Dihydroxy-21-(3-hydroxy-3-trifluoromethyl-4-trifluoro-butynyl)-20S-cholecalciferol] | more potent in suppressing renin expression than 1,25(OH)2D3 | – | – | – | – | –
C=C1/C(=C\C=C2/CCC[C@@]3(C)C2CC[C@@H]3C(CCCC(C)(C)O)CCCC(C)(C)O)CC(O)C[C@@H]1O (stereo partly shown) [Compound 1, 1,25-Dihydroxy-21-(3-hydroxy-3-methyl-butyl)-cholecalciferol, reference compound] | comparable to that of 1,25(OH)2D3 | 0.022 | 0.003 | – | – | EC50 (HL-60 cells): 0.00034 µM; down regulation of INF-γ (class symbol) (IFN-γ production): * (good down regulation of INF-γ (e.g., less than 100 IC50 pM)); VDR Binding (VDR): 38.0**
C=C1/C(=C\C=C2/CCC[C@]3(C)[C@@H]([C@H](CCCC(C)(C)O)CC[C@@H](O)C(C)(C)O)CC[C@@H]23)C[C@@H](O)C[C@@H]1O [Compound 3, 1,25-Dihydroxy-21-(2R,3-dihydroxy-3-methyl-butyl)-20R-cholecalciferol] | comparable to that of 1,25(OH)2D3 | 0.066 | 0.03 | 25 | 71 | EC50 (HL-60 cells): 0.00217 µM; down regulation of INF-γ (class symbol) (IFN-γ production): * (good down regulation of INF-γ (e.g., less than 100 IC50 pM)); IC50 (ECV): 57.9 µM; IC50 (HT 1376): 98 µM; IC50 (NHEK): 46.5 µM; VDR Binding (VDR): 42.10*
COc1c(C)c2c(c(O)c1C/C=C(\C)CCC(=O)OCCN1CCOCC1)C(=O)OC2 [Mycophenolate Mofetil, reference compound] | – | – | – | – | – | upregulation of ILT3 expression [2]: fail to upregulate ILT3 expression at any concentration tested
CC(C)(O)CCC[C@@H](CC[C@@H](O)C(C)(C)O)[C@H]1CC[C@H]2/C(=C/C=C3C[C@@H](O)C[C@H](O)C3)CCC[C@]12C [Compound 38, 1,25-Dihydroxy-21-(2R,3-dihydroxy-3-methyl-butyl)-20S-19-nor-cholecalciferol] | – | 3.86 | > 0.3 | 44 | 72 | IC50 (ECV): 99.2 µM; IC50 (HT 1376): > 100 µM; IC50 (NHEK): 57 µM
C=C1/C(=C\C=C2/CCC[C@]3(C)[C@@H]([C@@H](CCCC(C)(C)O)CCC(=O)C(C)(C)O)CC[C@@H]23)C[C@@H](O)C[C@@H]1O [Compound 14, 1,25-Dihydroxy-20S-21-(3-hydroxy-3-methyl-butyl)-24-keto-cholecalciferol] | – | 0.35 | 0.03 | 25.5 | 8.3 | –
C=C1/C(=C\C=C2/CCC[C@]3(C)[C@@H]([C@H](C)CCCC(C)(C)O)CC[C@@H]23)C[C@@H](O)C[C@@H]1O [1,25(OH)2D3, reference compound] | – | 0.029 | – | 19 | 45 | EC50 (HL-60 cells): 0.00137 µM; down regulation of INF-γ (class symbol) (IFN-γ production): * (good down regulation of INF-γ (e.g., less than 100 IC50 pM)); IC50 (HT 1376): 50 µM; IC50 (NHEK): 4.9 µM
C=C1/C(=C\C=C2/CCC[C@@]3(C)C2CC[C@@H]3C(CC#CC(O)(C(F)(F)F)C(F)(F)F)CCCC(C)(C)O)CC(O)C[C@@H]1O (stereo partly drawn) [Compound 11, 1,25-Dihydroxy-21-(3-hydroxy-3-trifluoromethyl-4-trifluorobutynyl)-20R-cholecalciferol] | comparable to that of 1,25(OH)2D3 | – | – | – | – | –
CC(C)(O)CCC[C@@H](CCC(=O)C(C)(C)O)[C@H]1CC[C@H]2/C(=C/C=C3C[C@@H](O)C[C@H](O)C3)CCC[C@]12C [Compound 12, 1,25-Dihydroxy-20S-21-(3-hydroxy-3-methyl-butyl)-24-keto-19-nor-cholecalciferol] | – | 2.97 | 0.03 | > 30 | 2.6 | –
C=C1/C(=C\C=C2/CCC[C@]3(C)[C@@H]([C@@H](CCCC(C)(C)O)CC[C@@H](O)C(C)(C)O)CC[C@@H]23)C[C@@H](O)C[C@@H]1O [Compound 2, 1,25-Dihydroxy-21-(2R,3-dihydroxy-3-methyl-butyl)-20S-cholecalciferol] | more potent in suppressing renin expression than 1,25(OH)2D3 | 0.549 | 0.03 | 1 | 62 | EC50 (HL-60 cells): 0.0093 µM; IC50 (ECV): 69.4 µM; IC50 (NHEK): 37.2 µM; VDR Binding (VDR): 0.95**
[2H]C([2H])([2H])C(O)(CCC[C@@H](CC#CC(O)(C(F)(F)F)C(F)(F)F)C1CCC2/C(=C/C=C3/C[C@@H](O)C[C@H](O)C3=C)CCC[C@@]21C)C([2H])([2H])[2H] (stereo partly drawn) [Compound 40, 1,25-Dihydroxy-21-(3-hydroxy-3-trifluoromethyl-4-trifluoro-butynyl)-26,27-hexadeutero-20S-cholecalciferol] | – | 0.062 | 0.0001 | 6.4 | 2.2 | –
C=C1/C(=C\C=C2/CCC[C@]3(C)[C@@H]([C@@H](CCCC(C)(C)O)CC[C@@H](O)C(C)(C)O)CC[C@@H]23)C[C@@H](O)C[C@@H]1O (stereo in doubt) [Compound 2, 1,25-Dihydroxy-21-(2R,3-dihydroxy-3-methyl-butyl)-20S-cholecalciferol] | – | – | – | – | – | ILT3 mean fluorescence intensity ([2]; 1 nM of compound): 260; upregulation of ILT3 expression ([2]; listed as 1,24R,25-trihydroxy-20R-21-(3-hydroxy-3-methylbutyl)): very favourable upregulation; upregulation of ILT3 expression ([2]; listed as ix): greatest upregulation of ILT3
CC(C)(O)CCCC(CC#CC(O)(C(F)(F)F)C(F)(F)F)[C@H]1CCC2/C(=C/C=C3/CC(O)C[C@H](O)C3)CCC[C@@]21C (stereo partly drawn) [Compound 5, 1,25-Dihydroxy-21-(3-hydroxy-3-trifluoromethyl-4-trifluoro-butynyl)-20R-19-nor-cholecalciferol] | comparable to that of 1,25(OH)2D3 | – | – | – | – | –
[2H]C([2H])([2H])C(O)(CCC[C@@H](CC#CC(O)(C(F)(F)F)C(F)(F)F)C1CCC2/C(=C/C=C3C[C@@H](O)C[C@H](O)C3)CCC[C@@]21C)C([2H])([2H])[2H] (stereo partly drawn) [Compound 39, 1,25-Dihydroxy-21(3-hydroxy-3-trifluoromethyl-4-trifluoro-butynyl)-26,27-hexadeutero-19-nor-20S-cholecalciferol] | – | 0.062 | 0.0003 | 7 | 2.2 | –
